This passage reports Activity, IC50 and Fu results from ChEMBL document CHEMBL4699482, “Synthesis and SAR of a series of mGlu NAMs based on an ethyl-8-methoxy-4-(4-phenylpiperazin-1-yl)quinoline carboxylate core” (Bioorg Med Chem Lett, 2020).

The target of series [1] is Metabotropic glutamate receptor 7 (Rattus norvegicus) (UniProt P35400). Description: Negative allosteric modulation of rat mGlu7 receptor expressed in HEK cells co-expressing Galpha15 assessed as minimum L-AP4 response by measuring reduction in calcium mobilization incubated for 142 secs prior to glutamate addition and after 120 secs treated with L-AP4 and measured after 40 secs by Fluo-4 AM dye based fluorescence assay relative to L-AP4. In kind it is functional, cell-based. Details: scale not given: the % may be the effect or the level left. Conditions: time 302.0 sec. A general note: A change in cytosolic calcium serves as a functional read-out for many receptors and channels.
Sequence of Metabotropic glutamate receptor 7 (Rattus norvegicus) (P35400 whole entry): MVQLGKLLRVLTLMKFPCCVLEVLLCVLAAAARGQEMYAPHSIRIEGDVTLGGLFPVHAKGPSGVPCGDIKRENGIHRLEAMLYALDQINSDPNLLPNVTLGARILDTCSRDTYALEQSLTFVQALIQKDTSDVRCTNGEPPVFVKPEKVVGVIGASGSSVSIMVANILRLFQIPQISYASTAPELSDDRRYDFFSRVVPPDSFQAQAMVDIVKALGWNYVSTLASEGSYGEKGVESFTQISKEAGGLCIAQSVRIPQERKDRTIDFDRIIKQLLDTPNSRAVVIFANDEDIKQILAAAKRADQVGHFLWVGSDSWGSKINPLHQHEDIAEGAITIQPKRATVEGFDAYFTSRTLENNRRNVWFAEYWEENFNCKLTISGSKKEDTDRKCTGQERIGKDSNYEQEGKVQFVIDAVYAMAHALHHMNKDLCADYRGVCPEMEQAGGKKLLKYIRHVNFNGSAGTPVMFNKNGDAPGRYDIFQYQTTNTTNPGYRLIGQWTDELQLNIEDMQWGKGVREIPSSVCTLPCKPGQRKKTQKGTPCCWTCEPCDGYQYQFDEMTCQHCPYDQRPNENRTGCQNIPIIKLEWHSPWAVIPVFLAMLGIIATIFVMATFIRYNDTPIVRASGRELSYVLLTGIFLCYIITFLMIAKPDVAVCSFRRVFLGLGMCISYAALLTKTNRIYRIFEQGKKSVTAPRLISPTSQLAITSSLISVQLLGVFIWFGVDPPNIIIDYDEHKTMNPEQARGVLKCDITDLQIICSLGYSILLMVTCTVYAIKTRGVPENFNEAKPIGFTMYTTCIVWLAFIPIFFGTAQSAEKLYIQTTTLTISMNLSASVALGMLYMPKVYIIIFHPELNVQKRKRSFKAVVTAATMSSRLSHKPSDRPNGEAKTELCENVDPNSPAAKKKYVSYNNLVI

The target in series [2] is Metabotropic glutamate receptor 7 (Rattus norvegicus, UniProt P35400). Description: Negative allosteric modulation of rat mGlu7 receptor expressed in HEK cells co-expressing Galpha15 assessed as reduction in calcium mobilization incubated for 142 secs prior to glutamate addition and after 120 secs treated with L-AP4 and measured after 40 secs by Fluo-4 AM dye based fluorescence assay. It is filed as functional, cell-based.
Sequence of Metabotropic glutamate receptor 7 (P35400 whole entry): as above

Series [3] addresses Metabotropic glutamate receptor 8 (Homo sapiens, UniProt O00222). Description: Negative allosteric modulation of mGlu8 receptor (unknown origin).
Series [4] has as its target Metabotropic glutamate receptor 4 (Homo sapiens, UniProt Q14833). Description: Negative allosteric modulation of mGlu4 receptor (unknown origin).
Series [5] can be described thus: Fraction unbound in rat plasma at 5 uM incubated for 4 hrs by equilibrium dialysis method. It is filed as ADME, cell-free. For orientation: In equilibrium dialysis only unbound substance equilibrates across the membrane.
Series [6] can be described thus: Fraction unbound in human plasma at 5 uM incubated for 4 hrs by equilibrium dialysis method. In kind it is ADME, cell-free.
Series [7] in a line: Fraction unbound in mouse brain homogenate at 5 uM incubated for 6 hrs by equilibrium dialysis method. It is filed as ADME, tissue-based.
The nature of series [8]: Fraction unbound in rat brain homogenate at 5 uM incubated for 6 hrs by equilibrium dialysis method. It is filed as ADME, tissue-based.
Series [9] in a line: Fraction unbound in mouse plasma at 5 uM incubated for 4 hrs by equilibrium dialysis method. It is filed as ADME, cell-free.
Where [10] appears, read: filed as negative allosteric modulator.

Sequence of Metabotropic glutamate receptor 8 (O00222 whole entry): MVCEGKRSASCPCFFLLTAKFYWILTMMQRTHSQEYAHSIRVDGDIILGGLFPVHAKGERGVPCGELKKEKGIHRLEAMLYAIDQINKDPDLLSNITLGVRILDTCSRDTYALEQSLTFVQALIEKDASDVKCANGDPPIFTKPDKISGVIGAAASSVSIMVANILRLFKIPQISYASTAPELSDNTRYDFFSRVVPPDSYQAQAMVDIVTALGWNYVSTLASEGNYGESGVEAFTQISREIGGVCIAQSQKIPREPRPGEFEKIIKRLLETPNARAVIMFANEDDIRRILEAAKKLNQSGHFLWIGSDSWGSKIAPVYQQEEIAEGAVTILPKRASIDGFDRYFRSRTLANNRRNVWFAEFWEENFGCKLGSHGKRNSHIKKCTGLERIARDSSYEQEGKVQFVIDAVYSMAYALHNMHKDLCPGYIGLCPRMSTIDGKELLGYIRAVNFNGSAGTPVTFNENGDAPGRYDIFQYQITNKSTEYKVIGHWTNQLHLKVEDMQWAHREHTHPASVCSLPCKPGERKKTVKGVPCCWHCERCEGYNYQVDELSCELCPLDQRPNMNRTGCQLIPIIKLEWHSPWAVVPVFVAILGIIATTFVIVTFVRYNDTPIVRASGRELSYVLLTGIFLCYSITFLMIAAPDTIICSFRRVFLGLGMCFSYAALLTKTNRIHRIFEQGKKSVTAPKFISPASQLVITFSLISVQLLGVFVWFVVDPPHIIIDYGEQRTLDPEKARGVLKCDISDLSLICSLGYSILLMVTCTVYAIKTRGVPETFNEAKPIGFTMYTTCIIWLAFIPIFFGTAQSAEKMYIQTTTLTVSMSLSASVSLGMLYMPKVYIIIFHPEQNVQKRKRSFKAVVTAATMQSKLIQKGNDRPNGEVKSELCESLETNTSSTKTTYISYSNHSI
Sequence of Metabotropic glutamate receptor 4 (Q14833 whole entry): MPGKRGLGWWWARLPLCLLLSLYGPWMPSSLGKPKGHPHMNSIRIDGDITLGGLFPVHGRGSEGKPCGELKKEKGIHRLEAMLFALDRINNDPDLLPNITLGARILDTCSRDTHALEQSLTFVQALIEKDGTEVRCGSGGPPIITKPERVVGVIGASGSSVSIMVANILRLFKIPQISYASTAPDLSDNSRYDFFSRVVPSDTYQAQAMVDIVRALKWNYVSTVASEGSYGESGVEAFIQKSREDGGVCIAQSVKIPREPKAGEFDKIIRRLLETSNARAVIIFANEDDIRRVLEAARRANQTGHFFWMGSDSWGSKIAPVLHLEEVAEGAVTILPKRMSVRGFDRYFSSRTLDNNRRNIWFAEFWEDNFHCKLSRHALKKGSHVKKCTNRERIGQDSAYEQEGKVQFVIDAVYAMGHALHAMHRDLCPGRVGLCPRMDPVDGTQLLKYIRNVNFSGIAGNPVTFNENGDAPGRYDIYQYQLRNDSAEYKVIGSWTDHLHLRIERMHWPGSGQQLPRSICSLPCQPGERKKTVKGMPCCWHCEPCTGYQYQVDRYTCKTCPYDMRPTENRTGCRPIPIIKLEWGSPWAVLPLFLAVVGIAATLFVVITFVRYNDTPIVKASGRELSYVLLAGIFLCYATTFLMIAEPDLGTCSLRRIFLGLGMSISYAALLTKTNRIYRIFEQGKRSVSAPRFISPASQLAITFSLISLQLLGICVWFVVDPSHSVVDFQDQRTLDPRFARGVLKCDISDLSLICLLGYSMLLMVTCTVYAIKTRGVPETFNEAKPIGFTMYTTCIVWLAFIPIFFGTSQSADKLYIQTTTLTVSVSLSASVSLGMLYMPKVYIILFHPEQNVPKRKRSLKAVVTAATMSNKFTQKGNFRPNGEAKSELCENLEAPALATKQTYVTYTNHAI

The IC50 is the midpoint of a concentration-inhibition curve. `CCOC(=O)c1cnc2c(OC)cccc2c1N1CCN(c2ccccc2OC)C(C)C1` (racemic): in series [1] (setting [10]), the Activity worked out at 8.6%. Moreover, the IC50 in series [2] turned out to be 1.3 µM.

In the case of `CCOC(=O)c1cnc2c(OC)cccc2c1-c1cnc(-c2ccccc2OC)cn1`, the Activity in [1] (setting [10]) worked out at 5.1%. Besides, the half-maximal inhibitory concentration (IC50) in series [2] was found to be 0.54 µM.

On to `CCOC(=O)c1cnc2c(OC)cccc2c1-c1cnc(-c2ccccc2OC)nc1`, for which, in series [1] (setting [10]), the Activity was found to be 12%. The IC50 in series [2] turned out to be 2.4 µM.

Consider `CCOC(=O)c1cnc2c(OC)cccc2c1C1=CCN(c2ccccc2OC)CC1`, for which the Activity in [1] (setting [10]) turned out to be 9.6%. Further, in series [2], the IC50 was found to be 3.6 µM.

As for `CCOC(=O)c1cnc2c(OC)cccc2c1N1CCN(c2ccnn2C)CC1`, in series [2], the IC50 was above 30 µM.

Take `CCOC(=O)c1cnc2c(OC)cccc2c1N1CCN(c2cncs2)CC1`: in series [2], the IC50 was above 30 µM.

In the case of `CCOC(=O)c1cnc2c(OC)cccc2c1-c1ccc(-c2ccccc2OCC)nc1`, the Activity in series [1] (setting [10]) is 6.3%. Further, the IC50 in series [2] came out at 0.37 µM.

For `CCOC(=O)c1cnc2c(OC)cc(OC)cc2c1-c1ccc(-c2ccccc2OCC)nc1`, the Activity in series [1] (setting [10]) is 5%. The IC50 in series [2] came out at 0.81 µM.

As for `CCOC(=O)c1cnc2c(OC)cccc2c1N1CCN(c2ccccc2Cl)CC1`, in series [2], the IC50 was above 30 µM.

As for `CCOC(=O)c1cnc2c(OC)cccc2c1N1CCN(c2c(OC)cccc2OC)CC1`, the Activity in series [1] (setting [10]) was 11%. In series [2], the IC50 came to 0.8 µM.

Regarding `CCOC(=O)c1cnc2c(OC)cc(OC)cc2c1-c1ccc(-c2ccccc2OC)nc1`, in series [1] (setting [10]), the Activity stood at 3.5%. In series [2], the IC50 was found to be 0.88 µM.

`CCOC(=O)c1cnc2c(OC)cccc2c1-c1ccc(-c2ccccc2OC(C)C)nc1`: the Activity in series [1] (setting [10]) was 5.8%. For the same compound, in series [2], the IC50 was found to be 1.5 µM.

Take `CCOC(=O)c1cnc2c(OC)cccc2c1-c1ccc(-c2ccccc2OC)nc1`: in [1] (setting [10]), the Activity amounted to 6.5%. Besides, in [2], the IC50 came to 0.6 µM.

With `CCOC(=O)c1cnc2c(OC)cccc2c1N1CCN(c2ccccc2C)CC1`, in series [1] (setting [10]), the Activity was 41%. Besides, the IC50 in [2] was above 10 µM.

For the compound `CCOC(=O)c1cnc2c(OC)cccc2c1N1CCN(c2cc(F)ccc2OC)CC1`, the Activity in series [1] (setting [10]) is 15%. Also, in [2], the half-maximal inhibitory concentration (IC50) was found to be 2.1 µM.

In the case of `CCOC(=O)c1cnc2c(OC)cccc2c1N1CCN(c2ccc(OC)cc2OC)CC1`, the Activity in series [1] (setting [10]) came to 9%. Moreover, the IC50 in series [2] came to 1.9 µM.

For the compound `CCOC(=O)c1cnc2c(OC)cc(OC)cc2c1N1CCN(c2ccccc2OC)CC1`, the Activity in series [1] (setting [10]) is 3.9%. Further, the concentration for half-maximal inhibition (IC50) in series [2] amounted to 0.67 µM.

On to `CCOC(=O)c1cnc2c(OC)cccc2c1-c1ccn(Cc2ccccc2OC)c1`, for which, in [1] (setting [10]), the Activity was found to be 6.5%. Also, the IC50 in series [2] was determined as 1.2 µM.

With `CCOC(=O)c1cnc2c(OC)cccc2c1-c1ccc(-c2ccccc2OC)cn1`, the Activity in series [1] (setting [10]) came to 6.8%. Further, in series [2], the IC50 amounted to 2.8 µM.

Consider `CCOC(=O)c1cnc2ccccc2c1N1CCN(c2ccccc2OC)CC1`, for which the IC50 in series [2] was above 30 µM.

On to `CCOC(=O)c1cnc2c(OC)cccc2c1-c1cc(F)c(-c2ccccc2OC)nc1OC`, for which the Activity in [1] (setting [10]) stood at 24%. Also, in [2], the IC50 was found to be 2.1 µM.

For `CCOC(=O)c1cnc2c(OC)cccc2c1N1CCN(c2ccccc2OC(C)C)CC1`, in series [1] (setting [10]), the Activity came to 6.5%. Besides, the IC50 in [2] was 2.3 µM.

For `CCOC(=O)c1cnc2c(OC)cccc2c1N1CCN(c2ccccc2OC)CC1C` (racemic), the Activity in series [1] (setting [10]) amounted to 6.1%. The IC50 in series [2] was determined as 1.5 µM.

For the compound `CCOC(=O)c1cnc2c(OC)cccc2c1N1CC2(CN(c3ccccc3OC)C2)C1`, in [2], the IC50 is above 30 µM.

As for `CCOC(=O)c1cnc2c(OC)cccc2c1N1CCN(c2ccccc2C#N)CC1`, the Activity in [1] (setting [10]) was 14%. Moreover, in [2], the IC50 turned out to be 4.2 µM.

With `CCOC(=O)c1cnc2c(OC)cccc2c1N1CCN(c2ccccc2OC)CC1`, the IC50 in series [3] was above 30 µM; in [4] it was above 30 µM; in [2], 0.647 µM. The Activity in series [1] (setting [10]) turned out to be 5.6%. Also, the Fu came out at 0.016 in series [5] and 0.018 in series [6].

Consider `CCOC(=O)c1cnc2c(OC)cccc2c1N1CCN(c2ccccc2OC(F)(F)F)CC1`, for which the IC50 in series [2] is above 30 µM.

As to `CCOC(=O)c1cnc2c(OC)cccc2c1C1CCN(c2ccccc2OC)CC1`, the Activity in series [1] (setting [10]) was found to be 41%. In series [2], the IC50 was above 10 µM.

Consider `CCOC(=O)c1cnc2sccc2c1N1CCN(c2ccccc2OC)CC1`, for which the Activity in series [1] (setting [10]) was 26%. Moreover, the IC50 in series [2] was 4.5 µM.

In the case of `CCOC(=O)c1cnc2c(OC)cccc2c1N1CCN(c2ccccc2OCC)CC1`, the Activity in [1] (setting [10]) is 8.7%. Moreover, the IC50 in series [2] turned out to be 5.1 µM.

Consider `CCOC(=O)c1cnccc1N1CCN(c2ccccc2OC)CC1`, for which the Activity in series [1] (setting [10]) amounted to 13%. Further, the IC50 in series [2] was 4.2 µM.

For the compound `CCOC(=O)c1cnc2c(OC)cccc2c1N1CCN(c2ccccc2F)CC1`, the Activity in series [1] (setting [10]) was found to be 12%. Moreover, the IC50 in [2] was found to be 6.1 µM.

Take `CCOC(=O)c1cnc2c(OC)cccc2c1N1CCN(c2ccccc2SC)CC1`: the Activity in series [1] (setting [10]) amounted to 4.7%. For the same compound, the IC50 in series [2] came to 0.51 µM.

Turning to `CCOC(=O)c1cnc2c(OC)cccc2c1N(C)CCN(C)c1ccccc1OC`, in series [1] (setting [10]), the Activity came to 9.6%. Besides, in series [2], the IC50 is 4.4 µM.

Regarding `CCOC(=O)c1cnc2ccsc2c1N1CCN(c2ccccc2OC)CC1`, the Activity in series [1] (setting [10]) stood at 24%. The IC50 in [2] came to 4.5 µM.

For the compound `CCOC(=O)c1cnc2c(OC)cccc2c1-c1cnc(-c2ccccc2OC)c(OC)c1`, in [1] (setting [10]), the Activity came out at 3.6%. Also, the Fu worked out at 0.04 in series [7], 0.01 in [5], 0.04 in series [8] and 0.01 in [9]. In addition, in series [2], the IC50 was found to be 0.35 µM.

On to `CCOC(=O)c1cnc2c(OC)cccc2c1-c1ccc(-c2ccccc2SC)nc1`, for which the Activity in series [1] (setting [10]) was 5.6%. Besides, the IC50 in [2] worked out at 0.41 µM.

For `CCOC(=O)c1cnc2c(OC)cccc2c1C1C2CC1CN(c1ccccc1OC)C2` (stereo unspecified), in series [2], the IC50 was above 30 µM.

Take `CCOC(=O)c1cnc2c(OC)cccc2c1N1CCN(c2cccs2)CC1`: the IC50 in series [2] was above 30 µM.

Turning to `CCOC(=O)c1cnc2c(OC)cccc2c1N1CC2CN(c3ccccc3OC)CC2C1` (stereo unspecified), the Activity in [1] was found to be 57%. The IC50 in series [2] is above 10 µM.

For `CCOC(=O)c1cnc2c(OC)cccc2c1N1CCN(c2cccnc2OC)CC1`, the Activity in series [1] (setting [10]) was determined as 10%. In [2], the IC50 was determined as 1.5 µM.

Turning to `CCOC(=O)c1cnc2c(OC)cccc2c1-c1ccc(-c2ccccc2OC)cc1`, in series [1] (setting [10]), the Activity is 4.2%. In addition, the Fu in series [5] and in series [6] was below 0.001 in each case. Moreover, the IC50 in series [2] turned out to be 2.9 µM.

With `CCOC(=O)c1cnc2c(OC)cccc2c1C1CC2CC(C1)N2c1ccccc1OC` (stereo unspecified), the Activity in series [1] (setting [10]) came to 41%. For the same compound, the IC50 in series [2] was above 10 µM.

For `CCOC(=O)c1ccc2c(OC)cccc2c1N1CCN(c2ccccc2OC)CC1`, the IC50 in [2] was above 30 µM.

On to `CCOC(=O)c1cnc2c(OC)cccc2c1N1CCN(c2nccnc2OC)CC1`, for which the Activity in series [1] (setting [10]) came out at 11%. The IC50 in series [2] turned out to be 3 µM.
